Assays:
β-galactosidase [1] = test system: β-galactosidase
From the text: The chromogenic β-galactosidase substrate is a β-galactoside comprising galactose joined by β-linkage to a substituent that forms an insoluble precipitate of a first color when liberated by the action of β-galactosidase on the substrate.

[2] = test system: Staphylococcus epidermidis; test: Colony colour test of chromogenic substrate in medium (Example 1); type: cell-based
From the text: (§1) 6-Chloroindolyl-β-D-galactoside and 5-bromo-4-chloro-3-indolyl-β-D-glucuronide (X-gluc) were each tested separately with 17 different bacterial species including β-galactosidase producing microorganisms, β-glucuronidase producing microorganisms, and microorganisms which produce neither enzyme.

Salmonella typhimurium = test: as above; type: cell-based
From the text: as §1

[3] = test system: Acinetobacter calcoaceticus; test: as above; type: cell-based
From the text: as §1

Bacillus subtilus = test: as above; type: cell-based
From the text: as §1

Bacillus megaterium = test: as above; type: cell-based
From the text: as §1

Citrobacter freundii = test: as above; type: cell-based
From the text: as §1

Pseudomonas aeruginosa = test: as above; type: cell-based
From the text: as §1

Enterobacter aerogenes = test: as above; type: cell-based
From the text: as §1

[4] = as above; type: cell-based; settings: Staphylococcus faecalis
From the text: as §1

Serratia marcescens = test: as above; type: cell-based
From the text: as §1

Klebsiella pneumoniae = test: as above; type: cell-based
From the text: as §1

Sarcina lutea = test: as above; type: cell-based
From the text: as §1

Proteus vulgaris = test: as above; type: cell-based
From the text: as §1

Escherichia coli = test: as above; type: cell-based; settings: for colour of colonies grown in medium containing the substrate: E. coli, substrates tested separately
From the text: as §1

Bacillus cereus = test: as above; type: cell-based
From the text: as §1

Staphylococcus aureus = test: as above; type: cell-based
From the text: as §1

Enterobacter cloacae = test: as above; type: cell-based
From the text: as §1

β-glucuronidase [5] = molecular target: T1, β-glucuronidase (Escherichia coli, UniProt P05804); test: Precipitate formed by substrate upon reaction with enzyme; type: biochemical
T1 construct: E. coli produces β-galactosidase, but, unlike general (other) coliforms, also produces β-glucuronidase; endogenous in cells; host or cells: Escherichia coli colonies growing in the test medium
T1 sequence (P05804 whole entry): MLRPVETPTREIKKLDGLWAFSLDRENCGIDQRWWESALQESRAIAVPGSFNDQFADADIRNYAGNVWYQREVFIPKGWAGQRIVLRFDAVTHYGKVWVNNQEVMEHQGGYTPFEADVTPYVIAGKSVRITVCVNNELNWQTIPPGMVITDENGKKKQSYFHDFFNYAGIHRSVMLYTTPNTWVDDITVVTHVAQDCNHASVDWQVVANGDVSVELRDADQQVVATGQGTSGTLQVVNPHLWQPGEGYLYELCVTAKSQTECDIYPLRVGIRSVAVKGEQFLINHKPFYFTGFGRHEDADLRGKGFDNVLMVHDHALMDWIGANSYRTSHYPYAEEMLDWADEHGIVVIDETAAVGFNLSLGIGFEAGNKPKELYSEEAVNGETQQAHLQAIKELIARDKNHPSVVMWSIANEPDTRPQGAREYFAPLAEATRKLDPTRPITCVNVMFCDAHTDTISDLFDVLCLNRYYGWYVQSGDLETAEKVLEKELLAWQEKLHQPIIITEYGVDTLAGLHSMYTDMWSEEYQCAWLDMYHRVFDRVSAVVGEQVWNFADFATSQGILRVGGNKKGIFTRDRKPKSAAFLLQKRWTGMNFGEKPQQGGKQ
From the text: The β-glucuronidase substrates and compounds described herein as “glucuronides” include carboxylate salts formed by reacting a suitable base with the glucuronic carboxyl group. Suitable bases include alkali metal or alkaline earth metal hydroxides or carbonates, for example, sodium hydroxide, potassium hydroxide, calcium hydroxide, magnesium hydroxide, and corresponding carbonates; and nitrogen bases such as ammonia and alkylamines such as trimethylamine, triethylamine and cyclohexylamine.

β-galactosidase [6] = settings: known test compound; cited from earlier work
β-glucuronidase [7] = molecular target: T1, β-glucuronidase; settings: Watkins et al. 1988; cited from earlier work
coliforms = test: Enzyme inducer added to medium; type: cell-based; settings: approximately 25 mg/liter of medium; some species of coliforms
From the text: It is possible that the enzyme production of the general coliforms may be enhanced by the addition to the medium formulations of very small amounts of substances known as enzyme inducers. The specific inducer for β-galactosidase is available and is known chemically as isopropyl-β-D-thiogalactopyranoside.

OC[C@H]1O[C@@H](Oc2c[nH]c3cc(Cl)ccc23)[C@H](O)[C@@H](O)[C@H]1O [6-chloroindolyl-β-D-galactoside]
precipitate formed when reacted upon by β-galactosidase (β-galactosidase [1]): insoluble magenta precipitate
coloured colonies in medium with 6-chloroindolyl-β-D-galactoside [2]: −
coloured colonies in medium with 6-chloroindolyl-β-D-galactoside (Salmonella typhimurium): −
coloured colonies in medium with 6-chloroindolyl-β-D-galactoside [3]: −
coloured colonies in medium with 6-chloroindolyl-β-D-galactoside (Bacillus subtilus): −
coloured colonies in medium with 6-chloroindolyl-β-D-galactoside (Bacillus megaterium): −
colour of colonies grown in medium containing the substrate (Citrobacter freundii): magenta colonies
coloured colonies in medium with 6-chloroindolyl-β-D-galactoside (Citrobacter freundii): +
coloured colonies in medium with 6-chloroindolyl-β-D-galactoside (Pseudomonas aeruginosa): −
colour of colonies grown in medium containing the substrate (Enterobacter aerogenes): magenta colonies
coloured colonies in medium with 6-chloroindolyl-β-D-galactoside (Enterobacter aerogenes): +
coloured colonies in medium with 6-chloroindolyl-β-D-galactoside [4]: −
coloured colonies in medium with 6-chloroindolyl-β-D-galactoside (Serratia marcescens): −
colour of colonies grown in medium containing the substrate (Klebsiella pneumoniae): magenta colonies
coloured colonies in medium with 6-chloroindolyl-β-D-galactoside (Klebsiella pneumoniae): +
coloured colonies in medium with 6-chloroindolyl-β-D-galactoside (Sarcina lutea): −
coloured colonies in medium with 6-chloroindolyl-β-D-galactoside (Proteus vulgaris): −
colour of colonies grown in medium containing the substrate (Escherichia coli): magenta colonies
coloured colonies in medium with 6-chloroindolyl-β-D-galactoside (Escherichia coli; Escherichia coli): +
coloured colonies in medium with 6-chloroindolyl-β-D-galactoside (Bacillus cereus): −
coloured colonies in medium with 6-chloroindolyl-β-D-galactoside (Staphylococcus aureus): −
colour of colonies grown in medium containing the substrate (Enterobacter cloacae): magenta colonies
coloured colonies in medium with 6-chloroindolyl-β-D-galactoside (Enterobacter cloacae): +

O=C(O)[C@H]1O[C@@H](Oc2c[nH]c3cc(Cl)ccc23)[C@H](O)[C@@H](O)[C@@H]1O [6-chloroindolyl-β-D-glucuronide]
precipitate formed when reacted upon by β-glucuronidase (β-glucuronidase [5]): insoluble magenta precipitate

OC[C@H]1O[C@@H](Oc2c[nH]c3ccc(Br)c(Cl)c23)[C@H](O)[C@@H](O)[C@H]1O [X-gal, 5-bromo-4-chloro-3-indolyl-β-D-galactopyranoside]
precipitate formed when acted on by β-galactosidase (β-galactosidase [6]): insoluble indigo blue precipitate

O=C(O)[C@H]1O[C@@H](Oc2c[nH]c3ccc(Br)c(Cl)c23)[C@H](O)[C@@H](O)[C@@H]1O [X-gluc, 5-bromo-4-chloro-3-indolyl-β-D-glucuronide, reference compound]
coloured colonies in X-gluc medium [2]: −
coloured colonies in X-gluc medium (Salmonella typhimurium): −
coloured colonies in X-gluc medium [3]: −
coloured colonies in X-gluc medium (Bacillus subtilus): −
coloured colonies in X-gluc medium (Bacillus megaterium): −
coloured colonies in X-gluc medium (Citrobacter freundii): −
coloured colonies in X-gluc medium (Pseudomonas aeruginosa): −
coloured colonies in X-gluc medium (Enterobacter aerogenes): −
coloured colonies in X-gluc medium [4]: −
coloured colonies in X-gluc medium (Serratia marcescens): −
coloured colonies in X-gluc medium (Klebsiella pneumoniae): −
coloured colonies in X-gluc medium (Sarcina lutea): −
coloured colonies in X-gluc medium (Proteus vulgaris): −
colour of colonies grown in medium containing the substrate (Escherichia coli): indigo blue colonies
coloured colonies in X-gluc medium (Escherichia coli; Escherichia coli): +
coloured colonies in X-gluc medium (Bacillus cereus): −
coloured colonies in X-gluc medium (Staphylococcus aureus): −
coloured colonies in X-gluc medium (Enterobacter cloacae): −
precipitate formed when acted on by β-glucuronidase (β-glucuronidase [7]): insoluble indigo blue precipitate

CC(C)S[C@@H]1O[C@H](CO)[C@H](O)[C@H](O)[C@H]1O [isopropyl-β-D-thiogalactopyranoside]
effect on speed of enzyme (β-galactosidase) production (coliforms): positive and noticeable effect on the speed of enzyme production

Reference: patent US6699685B1, “Method, test media and chromogenic compounds for identifying and differentiating general coliforms and escherichia coli bacteria” (RCR Scientific, Inc., priority 1990, dated 2004)
